# Data published in patent US12234216B2, “Isotopologues salts, crystalline forms, stereoisomers, of methylone and ethylone and methods of use thereof” (Terran Biosciences Inc., priority 2021, dated 2025).
# Structures can show the parent of a compound that is named as a salt.
# Tests used:
# [1] = Solubility screen (solvent aliquots, visual inspection); type: physicochemical
# Method: The experiments were carried out by adding the test solvent in aliquots to weighed portions of solid. Whether dissolution had occurred was judged by visual inspection after addition of each solvent aliquot. Solubility numbers recorded in Table 4 were calculated by dividing the weight of the sample by the total amount of solvent used to dissolve the sample. The actual solubilities may be greater than the numbers calculated because of the use of solvent aliquots that were too large or because of slow dissolution rates. All solubility measurements were carried out at room temperature unless noted otherwise.
# [2] = Dynamic vapor sorption (DVS); type: physicochemical
# Male Sprague-Dawley rats = assay: Rat elevated zero-maze model of anxiety; type: in vivo
# From the text: The rat zero-maze model is a refined alternative to the plus-maze, the most widely used animal model of anxiety, and consists of an elevated annular platform, divided equally into four quadrants. Two opposite quadrants are enclosed by Perspex walls on both the inner and the outer edges of the platform, while the remaining two opposite quadrants are open being enclosed only by a Perspex “lip”. Animals will show a preference for the closed areas, and avoidance of the open sections is assumed to stem from a rodent's natural aversion to open, exposed spaces. The primary index of anxiety, which reflect changes in open arm preference, is the percentage of time spent on the open areas. A reduction in the amount of activity on the open areas is considered to reflect an increase in anxiety. Other, ethologically-based behaviours are also assessed as indices of anxiety. One of the most important is stretched attend postures (SAP) from closed to open quadrants. […] Shepherd, J K; et al., (1994) Behavioural and pharmacological validation of the elevated “zero-maze” as an animal model of anxiety. Psychopharmacol., 116:56-64.
# Male Sprague-Dawley 200-250 g (Envigo UK) rats were used. Animals were group-housed (5 per cage; cage size: 40×40×20 cm) in a temperature-controlled environment (22±2° C.), under a 12 h light-dark cycle (lights on: 08:00 hours) for one week prior to testing. Food and water were freely available. Number of animals per group=5. Animals were moved into the experimental room 16-24 hours before testing.
# The elevated 0-maze comprises a black Perspex annular platform (105 cm diameter, 10 cm width) elevated to 65 cm above ground level, divided equally into four quadrants. Two opposite quadrants are enclosed by clear red Perspex walls (27 cm high) on both the inner and outer edges of the platform, while the remaining two opposite quadrants are surrounded only by a Perspex “lip” (1 cm high) which serves as a tactile guide to animals on these open areas.
# Subjects were weighed and tail marked before being injected. After a specified pre-treatment time, subjects were placed in a closed quadrant and a 5-min test period were recorded on videotape for subsequent analysis. The maze were cleaned with 5% methanol/water solution and dried thoroughly between test sessions. Behavioural measures comprise percentage time spent on the open areas (% TO) and frequency of stretched attend postures (SAP) from closed to open quadrants. Since the control groups were all treated identically with the same vehicle these were combined to increase power. The Chlordiazepoxide groups were also treated identically with the same dose so these were also combined to increase power. Animals are scored as being in the open area when all four paws were in an open quadrant and in the closed area only when all four paws have passed over the open-closed divide. All testing were carried out between 9.00 and 16.00 hours.
# For each study, a 1-way ANOVA was conducted across vehicle, CDP, and drug treatment groups. Each group was compared to the vehicle group and a p-value for treatment determined by Fishers Least Significant Difference (LSD) test. This analysis was performed in GraphPad Prism (Version 9). Formulations: […]
# Intraperitoneal (IP): Racemic methylone HCl was formulated in Vehicle 1 (Saline) for injection to concentrations of 1, 3 and 6 mg/mL to provide doses of 5, 15 and 30 mg/kg when administered ip in 5 mL/kg dosing volumes.
# Intraperitoneal (IP): S-methylone HCl was formulated in Vehicle 1 (Saline) for injection to concentrations of 0.5, 1, 1.5, 3 and 6 mg/mL to provide doses of 2.5, 5, 7.5, 15 and 30 mg/kg when administered ip in 5 mL/kg dosing volumes.
# Intraperitoneal (IP): R-methylone HCl was formulated in Vehicle 1 (Saline) for injection to concentrations of 1, 3 and 6 mg/mL to provide doses of 5, 15 and 30 mg/kg when administered ip in 5 mL/kg dosing volumes. […]
# [3] = Plasma and brain concentration at the end of the zero maze study; type: in vivo, rat; settings: terminal samples after 5, 15, 30 mg/kg ip; FIG. 68 and FIG. 69
# Method: Terminal sampling. At the end of the study, terminal blood was collected from 2 of the vehicle treated rats (>5 mL) and from all methylone HCl treated rats (500 uL) by CP under CO2. Blood samples were placed into Eppendorf tubes on ice containing 22 μL/mL blood (vehicle treated) or 11 μL EDTA (93 mg/mL) (Methylone HCl treated rats) and gently mixed. After no longer than 30 min, blood samples were centrifuged at 10,000 rpm×3 min and plasma samples (>2 mL (vehicle) or 2×100 μL (Methylone HCl treated) placed into Eppendorf tubes (Vehicle) or 96 well plates on dry ice. Immediately after blood sampling, brains were excised, rinsed in saline, blotted, weighed and snap-frozen in liquid N2. All samples were stored at −20° C. until dispatched on dry ice for analysis.
# Terminal sampling. At the end of the study, terminal blood was collected from 2 of the vehicle treated rats (>5 mL) and from all S-methylone HCl treated rats (500 uL) by CP under CO2. Blood samples were placed into Eppendorf tubes on ice containing 22 μL/mL blood (vehicle treated) or 11 μL EDTA (93 mg/mL) (S-methylone HCl treated rats) and gently mixed. […]
smiles,measurement,setting,value
"CNC(C)C(=O)c1ccc2c(c1)OCO2 (racemic) [(rac)-Methylone Hydrochloride, 3,4-methylenedioxy-N-methylcathinone hydrochloride]",Solubility,"[1]; MeOH, room temperature",48 mg/mL
same,Solubility,"[1]; MeOH/CHCl3 50/50, room temperature",45 mg/mL
same,relative humidity above which water uptake is seen,[2]; DVS (FIG. 26),above 75 % RH
same,physical stability after the moisture sorption-desorption analysis,[2]; between 5% RH and 95% RH,physically stable
same,behaviour of the material on humidity exposure,[2]; exposed to 75% RH for 2 hours,became tacky and stuck to the vial
same,overall effect on anxiety,Male Sprague-Dawley rats; 5 mg/kg ip,anxiogenic effect
same,time spent in the open arms,"Male Sprague-Dawley rats; 5 mg/kg ip, vs placebo",decrease in time spent in the open arms vs placebo
same,frequency of SAPs,Male Sprague-Dawley rats; 15 mg/kg ip,dose dependent decrease in SAPs
same,overall effect on anxiety,Male Sprague-Dawley rats; 15 mg/kg ip,mixed anxiogenic anxiolytic effect
same,decrease in SAPs compared with chlordiazepoxide,Male Sprague-Dawley rats; 15 mg/kg ip vs chlordiazepoxide 6 mg/kg ip,not as effective as chlordiazepoxide
same,time spent in the open arms,"Male Sprague-Dawley rats; 15 mg/kg ip, vs placebo",no difference from placebo in time spent in the open arms
same,frequency of SAPs,Male Sprague-Dawley rats; 30 mg/kg ip,decrease in SAPs
same,time spent in the open arms,Male Sprague-Dawley rats; 30 mg/kg ip,significant decrease in time spent in the open arms
same,anxiolytic effects compared with chlordiazepoxide,Male Sprague-Dawley rats; high dose level,anxiolytic effects as effective as chlordiazepoxide
same,anxiogenic effects at lower doses,"Male Sprague-Dawley rats; lower doses, ip",anxiogenic effects at lower doses
same,time in the open arms,"Male Sprague-Dawley rats; specific doses, ip, 30 min pretest, FIGS. 62-64",increase time in the open arms
same,frequency of SAPs,"Male Sprague-Dawley rats; specific doses, ip, 30 min pretest, vs chlordiazepoxide 6 mg/kg, FIGS. 65-67",decreased the frequency of SAPs as effectively as the benzodiazepine chlordiazepoxide
same,concentration in plasma and brain,[3],increased in both brain and plasma at the higher doses
